From PMC10608817, “Extending the Affinity Range of Weak Affinity Chromatography for the Identification of Weak Ligands Targeting Membrane Proteins” (Molecules, 2023) come the findings set out here.

Broadly, the Kd is the concentration at which binding is half-saturated. Higher therefore signals weaker binding.

For this experiment, the target named is T1, Adenosine-A2A Receptor (AA2AR) (Homo sapiens, UniProt P29274).
T1 construct: gene ADORA2A; human AA2AR N-terminally fused to the flag and decahistidine tags, in nanodiscs
Briefly: biochemical. The format is binding.

T1 sequence (P29274 whole entry, the tested form may be a part): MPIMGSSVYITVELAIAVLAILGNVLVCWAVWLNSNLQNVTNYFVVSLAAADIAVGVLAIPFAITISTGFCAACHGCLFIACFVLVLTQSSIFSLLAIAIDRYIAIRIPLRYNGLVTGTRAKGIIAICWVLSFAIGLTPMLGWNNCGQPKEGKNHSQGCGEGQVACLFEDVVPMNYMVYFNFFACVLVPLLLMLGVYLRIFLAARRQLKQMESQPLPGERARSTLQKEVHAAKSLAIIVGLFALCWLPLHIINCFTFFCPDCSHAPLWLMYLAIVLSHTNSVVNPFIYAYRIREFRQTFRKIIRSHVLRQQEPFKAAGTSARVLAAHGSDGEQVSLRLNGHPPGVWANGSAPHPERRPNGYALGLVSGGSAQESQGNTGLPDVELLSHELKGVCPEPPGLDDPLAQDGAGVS

In turn, `COc1cc2cc[nH]c2cn1` [F469, 5-methoxy-1H-pyrrolo[2,3-c]pyridine] displayed a Kd of 190 µM. With `COc1ccc2[nH]ccc2n1` [F468, 5-methoxy-1H-pyrrolo[3,2-b]pyridine] the figure was 210 µM.
